# Read-outs that look alike come from different tables or passages of the source. Marks after values point to notes of the source that are not given here.
# Key:
# [1] = tested on: B. subtilis (isolate); test: Microdilution with resazurin, antibacterial; assay type: cell-based, Bacillus subtilis
# Protocol: (§1) The tested methanol, acetone, and n-hexane extracts, as well as the component (usnic acid) of X. stenophylla, were dissolved in 10% dimethyl sulfoxide (DMSO) and then diluted into the nutrient liquid medium. DMSO was obtained from Acros Organics (Fair Lawn, NJ, USA). Resazurin was obtained from Alfa Aesar GmbH & Co. (KG, Karlsruhe, Germany).
# (§2) The antimicrobial activity of the extracts and components was tested against 19 microorganisms. The experiment involved 15 strains of bacteria (i.e., 6 standard strains: Staphylococcus aureus ATCC 6538, Bacillus subtilis ATCC 6633, Proteus mirabilis ATCC 12453, Pseudomonas aeruginosa ATCC 27853, Klebsiella pneumoniae ATCC 70063, and Escherichia coli ATCC 25922; 9 isolates: Staphylococcus aureus, Escherichia coli, Salmonella enterica, Salmonella Typhimurium, Proteus mirabilis, Klebsiella pneumoniae, Pseudomonas aeruginosa, Bacillus subtilis, and Bacillus cereus). In addition, four fungal strains (i.e., two standard strains: Candida albicans ATCC 10231 and Aspergillus niger ATCC 16888; two isolates: Saccharomyces cerevisiae and Candida albicans) were tested. All isolates were a generous gift from the Institute of Public Health, Kragujevac. The other microorganisms were provided from the collection held by the Microbiology Laboratory Faculty of Science, University of Kragujevac.
# (§3) The bacterial suspensions were prepared by the direct colony method. The turbidity of the initial suspension was adjusted using a densitometer (DEN-1, BioSan, Riga, Latvia). When adjusted to the turbidity of the 0.5 McFarland’s standard (Andrews, 2005) the bacteria suspension contained approximately 10^8 colony-forming units (CFU)/mL, and the suspension of yeast contained 10^6 CFU/mL; 1:100 dilutions of the initial suspension were additionally prepared in sterile 0.85% saline. The suspensions of fungal spores were prepared by gentle stripping of spores from slopes with growing mycelia. The resulting suspensions were 1:1000 diluted in sterile 0.85% saline.
# (§4) Antimicrobial activity was tested by determining the minimum inhibitory concentrations (MICs) and minimum microbicidal concentrations (MBCs) using the microdilution plate method with resazurin [56]. The 96-well plates were prepared by dispensing 100 μL of Mueller–Hinton broth for bacteria and Sabouard broth for fungi into each well. A 10 μL aliquot from the stock solution of the tested extract or component was added to the first row of the plate. Then, two-fold serial dilutions were performed using a multichannel pipette. The obtained concentration range was from 10 to 0.08 mg/mL. The method is described in detail in [76].
# (§5) Each test included growth control and sterility control.
# (§6) Minimum microbicidal concentrations were determined by plating 10 μL of samples from wells where no indicator color change or no mycelia growth was recorded on a nutrient agar medium. At the end of the incubation period, the lowest concentration with no growth (no colony) was defined as the minimum microbicidal concentration.
# [2] = tested on: P. mirabilis ATCC 12453; test: Microdilution with resazurin, antibacterial; assay type: cell-based, Proteus mirabilis
# Protocol: as §1, §2, §3, §4, §5, §6
# [3] = tested on: P. mirabilis (isolate); test: Microdilution with resazurin, antibacterial; assay type: cell-based, Proteus mirabilis
# Protocol: as §1, §2, §3, §4, §5, §6
# [4] = tested on: P. aeruginosa ATCC 27853; test: Microdilution with resazurin, antibacterial; assay type: cell-based, Pseudomonas aeruginosa
# Protocol: as §1, §2, §3, §4, §5, §6
# [5] = tested on: P. aeruginosa (isolate); test: Microdilution with resazurin, antibacterial; assay type: cell-based, Pseudomonas aeruginosa
# Protocol: as §1, §2, §3, §4, §5, §6
# [6] = tested on: P. aeruginosa biofilm; test: Biofilm metabolic activity by resazurin; assay type: cell-based, Pseudomonas aeruginosa; settings: Figure 3
# Protocol: (§7) Resazurin (7-hydroxy-3H-phenoxazin-3-one-10-oxide) is a viability dye used to assess the metabolic activity of biofilms. After incubation at 37 °C/48 h, a volume of 10 µL of resazurin indicator solution was added to each well. Plates were incubated in the dark for 3 h at 37 °C. The OD was measured at 590 nm using an enzyme-linked immunosorbent assay (ELISA) plate reader. In addition, the color change from purple to pink indicated the metabolic activity of the formed biofilm.
# [7] = tested on: HeLa cells (cervical adenocarcinoma); test: MTT assay; assay type: cell-based, human; settings: HeLa
# [8] = tested on: C. albicans (isolate); test: Microdilution with resazurin, antifungal; assay type: cell-based, Candida albicans; settings: extracts and usnic acid
# Protocol: as §1, §2, §3, §4, §5, §6
# [9] = tested on: C. albicans ATCC 10231; test: Microdilution with resazurin, antifungal; assay type: cell-based, Candida albicans; settings: extracts and usnic acid
# Protocol: as §1, §2, §3, §4, §5, §6
# [10] = DPPH radical scavenging activity; assay type: biochemical; settings: mean ± SD, triplicate
# Protocol: All chemicals for the antioxidant activity test were purchased from Sigma Aldrich. All measurements were conducted in triplicate, and a Shimadzu UV-1800 spectrophotometer was used for all measurements during antioxidant activity experiments. The IC50 value was used for comparing different radical scavenging effects between investigated extracts, isolated compounds, and positive controls. […] [71] with certain modifications. […] The solution was prepared ex tempore and stored in a tinted bottle in the refrigerator until the experiments were performed. […] The reaction mixture was vortexed and allowed to incubate in the dark for one hour, after which the absorbance was measured at 517 nm relative to the blank. […] Ac stands for absorbance of the control (which contains all reagents, except the tested extract or compound), and As is the absorbance of the sample.
# [11] = tested on: A. niger ATCC 16888; test: Microdilution with resazurin, antifungal; assay type: cell-based, Aspergillus niger; settings: extracts and usnic acid
# Protocol: as §1, §2, §3, §4, §5, §6
# [12] = tested on: MRC-5 cells (nontransformed human lung fibroblast); test: MTT assay; assay type: cell-based
# [13] = tested on: S. aureus ATCC 6538 biofilm; test: Biofilm metabolic activity by resazurin; assay type: cell-based, Staphylococcus aureus; settings: at some concentrations, Figure 4
# Protocol: as §7
# [14] = tested on: HCT 116 cells (colon cancer); test: MTT assay; assay type: cell-based, human
compound,measurement,setting,value
"CN(C)[C@@H]1C(O)=C(C(N)=O)C(=O)[C@@]2(O)C(O)=C3C(=O)c4c(O)cccc4[C@@](C)(O)[C@H]3C[C@@H]12 [TC, tetracycline]",MBC,"[1]; Bacillus subtilis, antibiotics, read-out: MBC",0.25 µg/mL
same,MIC,"[1]; Bacillus subtilis, antibiotics, read-out: MIC",< 0.06 µg/mL
same,MBC,"[2]; Proteus mirabilis, ATCC12453, antibiotics, read-out: MBC",4 µg/mL
same,MIC,"[2]; Proteus mirabilis, ATCC12453, antibiotics, read-out: MIC",2 µg/mL
same,MBC,"[3]; Proteus mirabilis, antibiotics, read-out: MBC",> 128 µg/mL
same,MIC,"[3]; Proteus mirabilis, antibiotics, read-out: MIC",> 128 µg/mL
same,MBC,"[4]; Pseudomonas aeruginosa, ATCC27853, antibiotics, read-out: MBC",32 µg/mL
same,MIC,"[4]; Pseudomonas aeruginosa, ATCC27853, antibiotics, read-out: MIC",4 µg/mL
same,MBC,"[5]; Pseudomonas aeruginosa, antibiotics, read-out: MBC",> 128 µg/mL
same,MIC,"[5]; Pseudomonas aeruginosa, antibiotics, read-out: MIC",> 128 µg/mL
usnic acid,Metabolic activity of biofilm compared to the growth control,[6],higher
same,MBC,[1]; extracts and usnic acid,<80 µg/mL
same,MIC,[1]; extracts and usnic acid,<80 µg/mL
same,MBC,[2]; extracts and usnic acid,<10000 µg/mL
same,MIC,[2]; extracts and usnic acid,<10000 µg/mL
same,MBC,[3]; extracts and usnic acid,<10000 µg/mL
same,MIC,[3]; extracts and usnic acid,<10000 µg/mL
same,GI50 (50% growth inhibition),[7]; 24 h,>100 µg/mL
same,IC50,[7]; 24 h,>100 µg/mL
same,TGI (total growth inhibition),[7]; 24 h,>100 µg/mL
same,GI50 (50% growth inhibition),[7]; 48 h,99.16 ± 15.59 µg/mL
same,IC50,[7]; 48 h,>100 µg/mL
same,TGI (total growth inhibition),[7]; 48 h,>100 µg/mL
same,GI50 (50% growth inhibition),[7]; 72 h,64.28 ± 8.34 µg/mL
same,TGI (total growth inhibition),[7]; 72 h,86.91 ± 5.42 µg/mL
same,IC50,"[7]; 72 h, listed as UA",>100 µg/mL
same,MFC,[8],<10000 µg/mL
same,MIC,[8],10000 µg/mL
same,MFC,[9],<10000 µg/mL
same,MIC,[9],10000 µg/mL
same,DPPH Radical Scavenging Activity (IC50),[10],"64.92 ± 1.06 ^a,b,c,d µg/mL"
same,MFC,[11],<10000 µg/mL
same,MIC,[11],10000 µg/mL
same,GI50 (50% growth inhibition),"[12]; MRC-5, 24 h",42.97 ± 1.56 µg/mL
same,IC50,"[12]; MRC-5, 24 h",66.18 ± 1.72 µg/mL
same,TGI (total growth inhibition),"[12]; MRC-5, 24 h",>100 µg/mL
same,GI50 (50% growth inhibition),"[12]; MRC-5, 48 h",41.31 ± 0.56 µg/mL
same,IC50,"[12]; MRC-5, 48 h",78.54 ± 0.87 µg/mL
same,TGI (total growth inhibition),"[12]; MRC-5, 48 h",93.25 ± 0.08 µg/mL
same,GI50 (50% growth inhibition),"[12]; MRC-5, 72 h",36.73 ± 0.92 µg/mL
same,IC50,"[12]; MRC-5, 72 h",53.14 ± 1.04 µg/mL
same,TGI (total growth inhibition),"[12]; MRC-5, 72 h",89.15 ± 0.25 µg/mL
same,Metabolic activity of biofilm compared to the growth control,[13],lower
same,MBC,[4]; extracts and usnic acid,<10000 µg/mL
same,MIC,[4]; extracts and usnic acid,10000 µg/mL
same,MBC,[5]; extracts and usnic acid,<10000 µg/mL
same,MIC,[5]; extracts and usnic acid,10000 µg/mL
same,GI50 (50% growth inhibition),"[14]; HCT 116, 24 h",41.94 ± 3.12 µg/mL
same,IC50,"[14]; HCT 116, 24 h",>100 µg/mL
same,TGI (total growth inhibition),"[14]; HCT 116, 24 h",79.12 ± 1.18 µg/mL
same,GI50 (50% growth inhibition),"[14]; HCT 116, 48 h",27.21 ± 1.94 µg/mL
same,IC50,"[14]; HCT 116, 48 h",83.99 ± 4.22 µg/mL
same,TGI (total growth inhibition),"[14]; HCT 116, 48 h",63.58 ± 0.90 µg/mL
same,GI50 (50% growth inhibition),"[14]; HCT 116, 72 h",15.87 ± 2.89 µg/mL
same,IC50,"[14]; HCT 116, 72 h",23.79 ± 2.10 µg/mL
same,TGI (total growth inhibition),"[14]; HCT 116, 72 h",64.91 ± 1.44 µg/mL
